Experimental data published in patent publication US20150150878A1, “Methods For Inhibiting Viruses By Targeting Cathepsin-L Cleavage Sites In The Viruses' Glycoproteins” (priority 2012, published 2015).

What follows are molecules tested against T1, cathepsin L (Homo sapiens, UniProt P07711).
Format: biochemical
Design: human cathepsin L purified from human liver (Sigma Aldrich); purchased Sigma Aldrich; host or cells: human liver (tissue-purified)
Also: test concentration or dose not given here.

T1 sequence (P07711 114-333): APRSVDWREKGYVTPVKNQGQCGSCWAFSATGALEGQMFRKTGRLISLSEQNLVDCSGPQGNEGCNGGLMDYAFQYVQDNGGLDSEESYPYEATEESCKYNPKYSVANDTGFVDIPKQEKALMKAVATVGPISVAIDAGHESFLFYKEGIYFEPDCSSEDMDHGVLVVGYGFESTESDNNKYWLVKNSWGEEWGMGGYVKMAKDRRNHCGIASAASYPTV

Row | SMILES | Inhibition of cleavage of SARS peptide by Cathepsin-L [%] | percentage inhibition against SARS peptide [%]
1 | Cc1cnn(CCCNC(=O)c2cc(-c3cccnc3)nc3ccc(Cl)cc23)c1 [Compound 7923236] | 60.2 | 66.2
2 | Cc1c(C#N)c2ccccc2n1CC(=O)NCc1ccc2c(c1)OCO2 [Compound 6874634] | 65.6 | 67.7
3 | O=C(Nc1ccc(S(=O)(=O)N2CCOCC2)cc1)Nc1ccc(F)c(Cl)c1 [Compound 7798500] | 69.6 | 62.2
4 | CNS(=O)(=O)c1ccc(NC(=O)Nc2ccc(F)c(Cl)c2)cc1 [Compound 7790059] | 49.3 | 
5 | CN(C)c1ccc(C(O)(c2ccc(N(C)C)cc2)c2ccc(N(C)C)cc2)cc1 [Compound 5152606] | 82.15 | 
6 | Cc1cc(C(=O)Nc2cccnc2)sc1-c1ccccc1 [Compound 7948346] | 72.4 | 
7 | O=C(Nc1ccc(F)c(Cl)c1)Nc1nnc(C(F)(F)F)s1 [Compound 7940158] | 55.8 | 64.6
8 | Nc1ccc2[nH]c3ccccc3c2c1 [Compound 5172420] | 42.29 | 
9 | O=C(Nc1cccnc1)c1cc2cc(Br)ccc2oc1=O [Compound 7947992] | 37.7 | 
10 | Cl.c1ccc(CNC2CCCc3c2[nH]c2ccc(-c4ccccc4)cc32)cc1 (stereo not drawn) [Compound 5219666] | 94.6 | 96.8
11 | O=C(Nc1nc(-c2ccccc2)cs1)c1cc(-n2cnnc2)ccc1Cl [Compound 7931205] | 36.8 | 38.1
12 | N#CSc1ccc(NC(=O)CSc2nc3ccccc3[nH]2)cc1 [Compound 6572698] | 66.1 | 44.8
13 | Cc1c(Sc2nc3ccccc3[nH]2)c(=O)[nH]c2cc3c(cc12)OCO3 [Compound 7665576] | 60.7 | 
14 | COc1ccc(OC)c(NC(=O)Nc2ccc(C(F)(F)F)cc2)c1 [Compound 7808526] | 69.2 | 
15 | O=C(Nc1ccc2c(c1)OCO2)c1cc(-c2cccnc2)nc2ccc(Cl)cc12 [Compound 7924029] | 60 | 71.2
16 | Cc1ccc(-c2nc3ccccc3[nH]2)cc1NC(=O)c1ccc2c(c1)OCO2 [Compound 7793889] | 76.5 | 

Target: T1, cathepsin L
Format: biochemical
Design: human cathepsin L purified from human liver (Sigma Aldrich); purchased Sigma Aldrich; host or cells: human liver (tissue-purified)
Remark: another data set of the same source

Row | SMILES | Inhibition of cleavage of Ebola peptide by Cathepsin-L [%] | percentage inhibition against Ebola peptide [%]
17 | Cc1cnn(CCCNC(=O)c2cc(-c3cccnc3)nc3ccc(Cl)cc23)c1 [Compound 7923236] | 14 | 34.8
18 | Cc1c(C#N)c2ccccc2n1CC(=O)NCc1ccc2c(c1)OCO2 [Compound 6874634] | 4.6 | 48
19 | O=C(Nc1ccc(S(=O)(=O)N2CCOCC2)cc1)Nc1ccc(F)c(Cl)c1 [Compound 7798500] | −6.3 | 64.8
20 | CNS(=O)(=O)c1ccc(NC(=O)Nc2ccc(F)c(Cl)c2)cc1 [Compound 7790059] | 1.8 | 
21 | CN(C)c1ccc(C(O)(c2ccc(N(C)C)cc2)c2ccc(N(C)C)cc2)cc1 [Compound 5152606] | 31.8 | 
22 | Cc1cc(C(=O)Nc2cccnc2)sc1-c1ccccc1 [Compound 7948346] | 25.2 | 
23 | O=C(Nc1ccc(F)c(Cl)c1)Nc1nnc(C(F)(F)F)s1 [Compound 7940158] | −12.3 | 49.1
24 | Nc1ccc2[nH]c3ccccc3c2c1 [Compound 5172420] | 6.1 | 
25 | O=C(Nc1cccnc1)c1cc2cc(Br)ccc2oc1=O [Compound 7947992] | 20 | 
26 | Cl.c1ccc(CNC2CCCc3c2[nH]c2ccc(-c4ccccc4)cc32)cc1 (stereo not drawn) [Compound 5219666] | 43 | 75.7
27 | O=C(Nc1nc(-c2ccccc2)cs1)c1cc(-n2cnnc2)ccc1Cl [Compound 7931205] | −0.7 | 20
28 | N#CSc1ccc(NC(=O)CSc2nc3ccccc3[nH]2)cc1 [Compound 6572698] | 15 | 34
29 | Cc1c(Sc2nc3ccccc3[nH]2)c(=O)[nH]c2cc3c(cc12)OCO3 [Compound 7665576] | −3.8 | 
30 | COc1ccc(OC)c(NC(=O)Nc2ccc(C(F)(F)F)cc2)c1 [Compound 7808526] | 9.6 | 
31 | O=C(Nc1ccc2c(c1)OCO2)c1cc(-c2cccnc2)nc2ccc(Cl)cc12 [Compound 7924029] | 22 | 55
32 | Cc1ccc(-c2nc3ccccc3[nH]2)cc1NC(=O)c1ccc2c(c1)OCO2 [Compound 7793889] | −3.4 | 

Target: T1, cathepsin L
Format: biochemical
Design: human cathepsin L purified from human liver (Sigma Aldrich); purchased Sigma Aldrich; host or cells: human liver (tissue-purified)
Remark: another data set of the same source

Row | SMILES | Inhibition of cleavage of Hendra peptide by Cathepsin-L [%] | percentage inhibition against Hendra peptide [%]
33 | Cc1cnn(CCCNC(=O)c2cc(-c3cccnc3)nc3ccc(Cl)cc23)c1 [Compound 7923236] | 32.6 | 59
34 | Cc1c(C#N)c2ccccc2n1CC(=O)NCc1ccc2c(c1)OCO2 [Compound 6874634] | 21.2 | 22.7
35 | O=C(Nc1ccc(S(=O)(=O)N2CCOCC2)cc1)Nc1ccc(F)c(Cl)c1 [Compound 7798500] | 26.3 | 30.4
36 | CNS(=O)(=O)c1ccc(NC(=O)Nc2ccc(F)c(Cl)c2)cc1 [Compound 7790059] | 12.4 | 
37 | CN(C)c1ccc(C(O)(c2ccc(N(C)C)cc2)c2ccc(N(C)C)cc2)cc1 [Compound 5152606] | 108.40 | 
38 | Cc1cc(C(=O)Nc2cccnc2)sc1-c1ccccc1 [Compound 7948346] | 17.7 | 
39 | O=C(Nc1ccc(F)c(Cl)c1)Nc1nnc(C(F)(F)F)s1 [Compound 7940158] | 26.2 | 19
40 | Nc1ccc2[nH]c3ccccc3c2c1 [Compound 5172420] | 8.20 | 
41 | O=C(Nc1cccnc1)c1cc2cc(Br)ccc2oc1=O [Compound 7947992] | 31.1 | 
42 | Cl.c1ccc(CNC2CCCc3c2[nH]c2ccc(-c4ccccc4)cc32)cc1 (stereo not drawn) [Compound 5219666] | 54.6 | 65.2
43 | O=C(Nc1nc(-c2ccccc2)cs1)c1cc(-n2cnnc2)ccc1Cl [Compound 7931205] | 34.8 | 38.6
44 | N#CSc1ccc(NC(=O)CSc2nc3ccccc3[nH]2)cc1 [Compound 6572698] | 21.6 | 24.8
45 | Cc1c(Sc2nc3ccccc3[nH]2)c(=O)[nH]c2cc3c(cc12)OCO3 [Compound 7665576] | 37.9 | 
46 | COc1ccc(OC)c(NC(=O)Nc2ccc(C(F)(F)F)cc2)c1 [Compound 7808526] | −4.08 | 
47 | O=C(Nc1ccc2c(c1)OCO2)c1cc(-c2cccnc2)nc2ccc(Cl)cc12 [Compound 7924029] | 26.3 | 45.6
48 | Cc1ccc(-c2nc3ccccc3[nH]2)cc1NC(=O)c1ccc2c(c1)OCO2 [Compound 7793889] | −7.77 | 

Target: T1, cathepsin L
Format: biochemical
Design: human cathepsin L purified from human liver (Sigma Aldrich); purchased Sigma Aldrich; host or cells: human liver (tissue-purified)
Remark: another data set of the same source

Row | SMILES | Inhibition of cleavage of NPY peptide by Cathepsin-L [%] | percentage inhibition against human Pro-NPY peptide [%]
49 | Cc1cnn(CCCNC(=O)c2cc(-c3cccnc3)nc3ccc(Cl)cc23)c1 [Compound 7923236] | 5.2 | 10.1
50 | Cc1c(C#N)c2ccccc2n1CC(=O)NCc1ccc2c(c1)OCO2 [Compound 6874634] | 12.8 | 13.4
51 | O=C(Nc1ccc(S(=O)(=O)N2CCOCC2)cc1)Nc1ccc(F)c(Cl)c1 [Compound 7798500] | 11.2 | 24.6
52 | CNS(=O)(=O)c1ccc(NC(=O)Nc2ccc(F)c(Cl)c2)cc1 [Compound 7790059] | 6.4 | 
53 | CN(C)c1ccc(C(O)(c2ccc(N(C)C)cc2)c2ccc(N(C)C)cc2)cc1 [Compound 5152606] | 70.2 | 
54 | Cc1cc(C(=O)Nc2cccnc2)sc1-c1ccccc1 [Compound 7948346] | 10.2 | 
55 | O=C(Nc1ccc(F)c(Cl)c1)Nc1nnc(C(F)(F)F)s1 [Compound 7940158] | 4 | 14.9
56 | Nc1ccc2[nH]c3ccccc3c2c1 [Compound 5172420] | 4.1 | 
57 | O=C(Nc1cccnc1)c1cc2cc(Br)ccc2oc1=O [Compound 7947992] | 18.6 | 
58 | Cl.c1ccc(CNC2CCCc3c2[nH]c2ccc(-c4ccccc4)cc32)cc1 (stereo not drawn) [Compound 5219666] | 30 | 44.4
59 | O=C(Nc1nc(-c2ccccc2)cs1)c1cc(-n2cnnc2)ccc1Cl [Compound 7931205] | 19.5 | 24.9
60 | N#CSc1ccc(NC(=O)CSc2nc3ccccc3[nH]2)cc1 [Compound 6572698] | 1 | 14.7
61 | Cc1c(Sc2nc3ccccc3[nH]2)c(=O)[nH]c2cc3c(cc12)OCO3 [Compound 7665576] | 2.0 | 
62 | COc1ccc(OC)c(NC(=O)Nc2ccc(C(F)(F)F)cc2)c1 [Compound 7808526] | 1.2 | 
63 | O=C(Nc1ccc2c(c1)OCO2)c1cc(-c2cccnc2)nc2ccc(Cl)cc12 [Compound 7924029] | 11 | 18.6
64 | Cc1ccc(-c2nc3ccccc3[nH]2)cc1NC(=O)c1ccc2c(c1)OCO2 [Compound 7793889] | 6.1 | 

Target: T1, cathepsin L
Format: biochemical
Design: human cathepsin L purified from human liver (Sigma Aldrich); purchased Sigma Aldrich; host or cells: human liver (tissue-purified)
Remark: another data set of the same source

Row | SMILES | Inhibition of cleavage of Nipah peptide by Cathepsin-L [%] | percentage inhibition against Nipah peptide [%]
65 | Cc1cnn(CCCNC(=O)c2cc(-c3cccnc3)nc3ccc(Cl)cc23)c1 [Compound 7923236] | 55.1 | 80.3
66 | Cc1c(C#N)c2ccccc2n1CC(=O)NCc1ccc2c(c1)OCO2 [Compound 6874634] | 46 | 54.1
67 | O=C(Nc1ccc(S(=O)(=O)N2CCOCC2)cc1)Nc1ccc(F)c(Cl)c1 [Compound 7798500] | 41.5 | 49.2
68 | CNS(=O)(=O)c1ccc(NC(=O)Nc2ccc(F)c(Cl)c2)cc1 [Compound 7790059] | 44.1 | 
69 | CN(C)c1ccc(C(O)(c2ccc(N(C)C)cc2)c2ccc(N(C)C)cc2)cc1 [Compound 5152606] | 121.65 | 
70 | Cc1cc(C(=O)Nc2cccnc2)sc1-c1ccccc1 [Compound 7948346] | 49.3 | 
71 | O=C(Nc1ccc(F)c(Cl)c1)Nc1nnc(C(F)(F)F)s1 [Compound 7940158] | 34 | 54.7
72 | Nc1ccc2[nH]c3ccccc3c2c1 [Compound 5172420] | 55.68 | 
73 | O=C(Nc1cccnc1)c1cc2cc(Br)ccc2oc1=O [Compound 7947992] | 61.4 | 
74 | Cl.c1ccc(CNC2CCCc3c2[nH]c2ccc(-c4ccccc4)cc32)cc1 (stereo not drawn) [Compound 5219666] | 90.6 | 87.5
75 | O=C(Nc1nc(-c2ccccc2)cs1)c1cc(-n2cnnc2)ccc1Cl [Compound 7931205] | 66.6 | 74.4
76 | N#CSc1ccc(NC(=O)CSc2nc3ccccc3[nH]2)cc1 [Compound 6572698] | 40.7 | 41.1
77 | Cc1c(Sc2nc3ccccc3[nH]2)c(=O)[nH]c2cc3c(cc12)OCO3 [Compound 7665576] | 63.7 | 
78 | COc1ccc(OC)c(NC(=O)Nc2ccc(C(F)(F)F)cc2)c1 [Compound 7808526] | 40.8 | 
79 | O=C(Nc1ccc2c(c1)OCO2)c1cc(-c2cccnc2)nc2ccc(Cl)cc12 [Compound 7924029] | 50.4 | 77.9
80 | Cc1ccc(-c2nc3ccccc3[nH]2)cc1NC(=O)c1ccc2c(c1)OCO2 [Compound 7793889] | 51.1 | 
